Columns and labels:
Type in all cases: cell-based, human
vav = vav protein expression (Western blot, immunocytochemistry)
Description: (§1) Western blots: Equal amounts of extract (30 μg) were added to 8 μl of electrophoresis sample buffer (Firma Roth; Karlsruhe, Germany). After boiling, the extracts were loaded on 15% SDS-PAGE gels and electrophoretically separated. Proteins were transferred to nitrocellulose membranes, and detection was performed with the ECL Western blotting analysis system (Amersham). […]
(§2) Immunocytochemical analysis: Immunocytochemistry was performed as described in Atreya et al., supra and Finotto et al., J. Exp. Med. 193:1247-1260 (2001)). […] Cells were rinsed with PBS, and nuclei were counterstained with Hoechst33342 blue for fluorescence (Molecular Probes; Burlingame, Calif., USA). Finally, cells were washed in PBS and analyzed with an Olympus Microscope. Six to ten high-power fields were finally analyzed in all patients per condition, and selected high-power fields were further analyzed by confocal laser microscopy.

Rac1 = Rac1 protein expression (Western blot, immunocytochemistry)
Description: as §1, §2

[1] = system: primary CD4+ T lymphocytes; experiment: Annexin V/propidium iodide FACS apoptosis of stimulated primary blood CD4+ T lymphocytes; details: for apoptosis induction during the first 2 days after administration: kinetic studies; for apoptosis of primary blood CD4+ T lymphocytes: day 5
Description: Isolation of primary CD4^+ T lymphocytes and lamina propria cells: Human peripheral blood mononuclear cells (PBMCs) from healthy volunteers (25-42 years of age) and patients with Crohn's disease (31-65 years of age) were isolated using Ficoll-Hypaque gradients. PBMCs were further purified using CD4 monoclonal antibodies attached to immunomagnetic beads according to the manufacturer's protocol, followed by treatment with Detachabead (Dynal; Oslo, Norway). In some cases, CD4^+ T cells were further separated by negative selection techniques using CD45RO or CD45RA monoclonal antibodies (PharMingen; Heidelberg, Germany) and immunomagnetic beads (Dynal). […] Lamina propria mononuclear cells (LPMCs) from patients with IBD were isolated from gut specimens using a short-term (5-minute) digestion protocol with collagenase V, hyaluronidase (Sigma-Aldrich; St. Louis, Mo., USA), and DNase (Roche; Mannheim, Germany), as recently described in detail in Holtmann et al., Eur. J. Immunol. 32:3142-3151 (2002). Briefly, specimens were washed in calcium- and magnesium-free HBSS (HBSS-CMF), cut into 0.5-cm pieces, and incubated twice in HBSS containing EDTA (0.37 mg/ml) and DTT (0.145 mg/ml) at 37° C. for 15 minutes, followed by subsequent digestion for 5 minutes with collagenase V 400 (1 mg/ml), deoxyribonuclease (0.1 mg/ml DNase), and hyaloronidase (0.1 mg/ml) in a shaking incubator at 37° C. The digested tissue was washed twice in RPMI medium containing 10% FCS and centrifuged. The tissue was finally mechanically homogenized (DAKO homogenizer; Hamburg, Germany) for 4 minutes, and cells were filtered through a sterile 40-μm cell strainer (Falcon; San Diego, Calif., USA).
Such CD28 costimulation is known to prevent apoptosis of primary T cells during T cell receptor (TCR) stimulation through activation of bcl-x, and NF-κB (Noel et al., J. Immunol. 157:636-647 (1996); Radvanyi et al., J. Immunol. 156:1788-1798 (1996); Khoshnan et al., J. Immunol. 165:1743-1754 (2000)). […] In addition, recombinant IL-2 (R&D Systems; Wiesbaden, Germany) was used at a final concentration of 40 U/ml in all experiments. Lamina propria T lymphocytes were stimulated with antibodies to CD2 (4 μg/ml; Immunotech; Marseille, France) and CD28 (1 μg/ml). […] To block CD95L-mediated (FasL-mediated) apoptosis, the NOK-1 antibody (4 μg/ml, PharMingen) was used whose Fab fragments bind to human CD95L (FasL) (Jodo et al., J. Immunol. 165:5487-5494 (2000)). Recombinant human FasL (Alexis Biochemicals; Heidelberg, Germany) was used as a positive control for the NOK-1 antibody (10 μg/ml).
For FACS analysis, apoptotic cells were detected by staining with annexin V and propidium iodide using the Annexin V FITC Apoptosis Detection Kit I (PharMingen) (Atreya et al., Nat. Med. 6:583-588 (2000)). In brief, T cells were washed twice in PBS, and the pellet was resuspended in annexin V binding buffer (PharMingen) at a concentration of 10^6 cells per milliliter. Annexin V FITC and propidium iodide were added (5 ill of each per 10^5 cells). Samples were gently mixed and incubated for 15 minutes at room temperature in the dark before FACS analysis. To verify the results obtained with the annexin V/propidium iodide staining, analysis of T cells displaying DNA fragmentation was also determined by the Nicoletti technique, as described in (Nicoletti et al., J. Immunol. Methods 139:271-279 (1991)). 10^6 T cells were fixed in 70% ethanol, washed once in HBSS, resuspended in 1 ml of HBSS and 1 ml of phosphate citric acid buffer (0.2 mol/l Na2PO4 and 0.004 mol/l citric acid [pH 7.8]), and incubated at room temperature for 5 minutes. After centrifugation, cells were resuspended in 1 ml of HBSS containing 20 μg/ml propidium iodide and 10 U DNase-free RNase A and incubated at room temperature for 30 minutes. Finally, cells were analyzed on a FACScan flow cytometer. Because of the fragmentation of DNA, apoptotic cells appear as hypodiploid in the DNA histogram.

[2] = stimulated through the TCR/CD3 complex plus CD28
[3] = stimulated with anti-CD3 antibodies alone

SMILES | expression of the guanosine exchange factor vav (vav) | expression of Rac1 (Rac1) | apoptosis induction during the first 2 days after administration [1] | apoptosis of primary blood CD4+ T lymphocytes [1, 2] | apoptosis of primary blood CD4+ T lymphocytes [1, 3] | concentration at which T cell apoptosis occurred ([1]; FIGS. 1a and 1b) | apoptosis of already preactivated T lymphocytes ([1]; drug added at day 5, annexin V/propidium iodide at day 10)
Sc1ncnc2nc[nH]c12 [6-MP, 6-mercaptopurine] | induced | not significantly suppressed | no apoptosis induction | induced apoptosis | no apoptosis | – | –
Cn1cnc([N+](=O)[O-])c1Sc1ncnc2nc[nH]c12 [azathioprine, Azathioprine] | induced | not significantly suppressed | no apoptosis induction | induced apoptosis | no apoptosis | 5 µM | induced apoptosis

Reference: patent publication US7524851B2 (Robert Bosch Gesellschaft fur Medizinische Forschung (RBMF), priority 2003, dated 2009)
